Measurements from paper PMC10253357, “Acceptors and Effectors Alter Substrate Inhibition Kinetics of a Plant Glucosyltransferase NbUGT72AY1 and Its Mutants” (International Journal of Molecular Sciences, 2023).
Values belong to the molecule of their own block, whether it stands above or below them.

Legend:
[1] = target: T1, NbUGT72AY1 (Nicotiana benthamiana, UniProt A0A8K1ZRH3); assay: UDP-Glo glucosyltransferase assay, UDP release; format: biochemical; conditions: UDP-glucose donor, Tris pH 7.5, 40 °C
T1 construct: pGEX-4T-1 vector (GST fusion expected), expressed in E. coli BL21(DE3) pLysS
T1 sequence (A0A8K1ZRH3 1-477): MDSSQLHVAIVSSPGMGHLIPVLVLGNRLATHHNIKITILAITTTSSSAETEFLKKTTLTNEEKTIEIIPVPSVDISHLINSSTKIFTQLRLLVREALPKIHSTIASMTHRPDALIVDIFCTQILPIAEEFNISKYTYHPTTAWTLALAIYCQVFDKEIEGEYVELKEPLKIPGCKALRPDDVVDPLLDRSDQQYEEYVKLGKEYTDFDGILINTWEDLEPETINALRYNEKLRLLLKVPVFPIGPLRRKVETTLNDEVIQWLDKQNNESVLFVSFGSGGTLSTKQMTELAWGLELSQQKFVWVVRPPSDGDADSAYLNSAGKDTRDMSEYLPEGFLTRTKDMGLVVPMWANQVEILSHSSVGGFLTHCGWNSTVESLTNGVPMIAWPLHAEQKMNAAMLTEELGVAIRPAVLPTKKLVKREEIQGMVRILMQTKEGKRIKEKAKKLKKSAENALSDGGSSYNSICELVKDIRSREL

[2] = target: T1, NbUGT72AY1; assay: UDP-Glo glucosyltransferase assay, UDP release; format: biochemical; conditions: UDP-glucose donor; Tris pH 7.5, 40 °C; fit with substrate inhibition and Hill coefficients
[3] = target: T1, NbUGT72AY1; assay: UDP-Glo assay with vanillin, effector added; format: biochemical; conditions: vanillin acceptor, UDP-glucose donor, Tris pH 7.5, 40 °C
[4] = target: T2, chimera A; assay: UDP-Glo glucosyltransferase assay, UDP release; format: biochemical, Nicotiana benthamiana; conditions: substrate inhibition constant, uncompetitive model with Hill coefficients; UDP-glucose donor; Tris pH 7.5, 40 °C
T2 construct: gene UGT72AY1; NbUGT72AY1 (MT945401) with a segment of StUGT72AY2 from Solanum tuberosum; pGEX-4T-1, E. coli

[5] = substrate: O=c1c(O)c(-c2ccc(O)cc2)oc2cc(O)cc(O)c12; assay: UDP-Glo glucosyltransferase assay, UDP release; format: biochemical, Nicotiana benthamiana; conditions: UDP-glucose donor, Tris pH 7.5, 40 °C, two products (3-O- and 7-O-glucoside)
[6] = substrate: Oc1ccc(O)cc1; assay: UDP-Glo glucosyltransferase assay, UDP release; format: biochemical, Nicotiana benthamiana; conditions: UDP-glucose donor, Tris pH 7.5, 40 °C, Michaelis-Menten, no substrate inhibition
[7] = substrate: COc1ccccc1O; assay: UDP-Glo glucosyltransferase assay, UDP release; format: biochemical, Nicotiana benthamiana; conditions: UDP-glucose donor, Tris pH 7.5, 40 °C, fit with substrate inhibition and Hill coefficients
[8] = substrate inhibition constant, uncompetitive model with Hill coefficients
[9] = substrate inhibition constant, complete (Vi = 0), uncompetitive model with Hill coefficients

Molecule: Cc1ccccc1O [o-cresol]
Ki [1, 9]: 1368 ± 165 µM
Km [2]: 17 ± 9 µM

Molecule: CCCCCCCC/C=C\CCCCCCCC(=O)O [oleic acid]
UDP-Glo assay with vanillin, effector added ([3]; effector at 20 and 100 µM): increased catalytic activity of NbUGT72AY1, noted after addition of stearic and oleic acid

Molecule: CCCCCCCCCCCCCCCCCC(=O)O [stearic acid]
UDP-Glo assay with vanillin, effector added ([3]; effector at 20 and 100 µM): Saturated stearic acid promoted the glycosylation activity of NbUGT72AY1 with vanillin

Molecule: CC1=CCCC(C)(C)C1/C=C/C(C)O (stereo not drawn) [α-ionol]
UDP-Glo assay with vanillin, effector added ([3]; effector at 100 and 200 µM): addition of α- and β-ionol to the reaction resulted in a concentration-dependent increase in Ki

Molecule: CC1=C(/C=C/C(C)O)C(C)(C)CCC1 (stereo not drawn) [β-ionol]
UDP-Glo assay with vanillin, effector added ([3]; effector at 100 and 200 µM): addition of α- and β-ionol to the reaction resulted in a concentration-dependent increase in Ki

B1: NbUGT72AY1 (Nicotiana benthamiana) (protein)
chain: MDSSQLHVAIVSSPGMGHLIPVLVLGNRLATHHNIKITILAITTTSSSAETEFLKKTTLTNEEKTIEIIPVPSVDISHLINSSTKIFTQLRLLVREALPKIHSTIASMTHRPDALIVDIFCTQILPIAEEFNISKYTYHPTTAWTLALAIYCQVFDKEIEGEYVELKEPLKIPGCKALRPDDVVDPLLDRSDQQYEEYVKLGKEYTDFDGILINTWEDLEPETINALRYNEKLRLLLKVPVFPIGPLRRKVETTLNDEVIQWLDKQNNESVLFVSFGSGGTLSTKQMTELAWGLELSQQKFVWVVRPPSDGDADSAYLNSAGKDTRDMSEYLPEGFLTRTKDMGLVVPMWANQVEILSHSSVGGFLTHCGWNSTVESLTNGVPMIAWPLHAEQKMNAAMLTEELGVAIRPAVLPTKKLVKREEIQGMVRILMQTKEGKRIKEKAKKLKKSAENALSDGGSSYNSICELVKDIRSREL
notes: pGEX-4T-1 vector (GST fusion expected), expressed in E. coli BL21(DE3) pLysS
Km [5]: 15 ± 3 µM
Km [6]: 331 ± 25 µM
Km [7]: 179 ± 44 µM

Second part, the molecule after the results:

Ki [1, 8]: 345 ± 58 µM
Molecule: CCc1ccc(O)c(OC)c1 [ethylguaiacol]

Ki [1, 8]: 62 ± 17 µM
Molecule: C=CCc1ccc(O)c(OC)c1 [eugenol]

Ki [1, 9]: 1022 ± 69 µM
Molecule: COc1ccccc1O [guaiacol]

Ki ([1]; substrate inhibition constant (partial uncompetitive model with Hill coefficients)): 16 ± 1 µM
Molecule: COc1cc2ccc(=O)oc2cc1O [scopoletin]

Ki [1, 9]: 1398 ± 283 µM
Ki [4]: 1437 ± 138 µM
Molecule: COc1cc(/C=C/C=O)cc(OC)c1O [sinapaldehyde]

Ki ([1]; substrate inhibition constant, partial uncompetitive model with Hill coefficients (n = 1, x = 2), no effector): 117 ± 24 µM
Molecule: COc1cc(C=O)ccc1O [vanillin]
